According to the supplement of paper PMC11061612:

Assays:
Experiment in all cases: combination Emax (second highest fraction inhibited in the dose matrix, 72 h); higher = more inhibition; extreme values may be limits of the assay
[1] = test system: EN (Endometrial Carcinoma)
Summary of the method: (§1)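 Cell lines grown in DMEM/F12 or RPMI with 10% FBS were plated in 1536-well plates and held 24 hours at 37°C, 5% CO2 before 72 hours of exposure to two-drug dose matrices, with DMSO typically at 0.2%. CellTiter-Glo 2.0 luminescence gave viability, which was converted to inhibition. Vehicle wells were set to 0 and blank wells to 1. Combination Emax is the second-highest inhibition in the matrix, and Bliss excess is the observed combination effect minus the expected EA + EB − EA·EB, where EA and EB are the single-agent effects.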

[2] = test system: 8305C (Thyroid Gland Carcinoma)
Summary of the method: as §1

[3] = test system: OC-314 (Ovarian Carcinoma)
Summary of the method: as §1

[4] = test system: K5 (Thyroid Gland Carcinoma)
Summary of the method: as §1

[5] = test system: CAPAN-1 (Pancreatic Carcinoma)
Summary of the method: as §1

[6] = test system: SU-DHL-6 (B-Cell Non-Hodgkin's Lymphoma)
Summary of the method: as §1

[7] = test system: HO-1-u-1 (Oral Cavity Carcinoma)
Summary of the method: as §1

NCI-H2461 (Mesothelioma) = test system: NCI-H2461 (Mesothelioma)
Summary of the method: as §1

[8] = test system: SW1271 (Small Cell Lung Carcinoma)
Summary of the method: as §1

[9] = test system: SUP-T1 (T-Lymphoblastic Leukemia)
Summary of the method: as §1

NCI-H2795 (Mesothelioma) = test system: NCI-H2795 (Mesothelioma)
Summary of the method: as §1

[10] = test system: CAL-54 (Kidney Carcinoma)
Summary of the method: as §1

[11] = test system: Hs-633T (Other Solid Carcinomas)
Summary of the method: as §1

[12] = test system: RKO (Colorectal Carcinoma)
Summary of the method: as §1

[13] = test system: LoVo (Colorectal Carcinoma)
Summary of the method: as §1

NCI-H28 (Mesothelioma) = test system: NCI-H28 (Mesothelioma)
Summary of the method: as §1

NB14 (Neuroblastoma) = test system: NB14 (Neuroblastoma)
Summary of the method: as §1

[14] = test system: PCI-30 (Head and Neck Carcinoma)
Summary of the method: as §1

[15] = test system: MDA-MB-468 (Breast Carcinoma)
Summary of the method: as §1

[16] = test system: SK-OV-3 (Ovarian Carcinoma)
Summary of the method: as §1

| Structure (SMILES) | combination Emax [1] | combination Emax [2] | combination Emax [3] | combination Emax [4] | combination Emax [5] | combination Emax [6] | combination Emax [7] | combination Emax (NCI-H2461 (Mesothelioma)) | combination Emax [8] | combination Emax [9] | combination Emax (NCI-H2795 (Mesothelioma)) | combination Emax [10] | combination Emax [11] | combination Emax [12] | combination Emax [13] | combination Emax (NCI-H28 (Mesothelioma)) | combination Emax (NB14 (Neuroblastoma)) | combination Emax [14] | combination Emax [15] | combination Emax [16] |
| --- | --- | --- | --- | --- | --- | --- | --- | --- | --- | --- | --- | --- | --- | --- | --- | --- | --- | --- | --- | --- |
| N#Cc1cnc(Nc2cc(NC[C@H]3CNCCO3)c(C(F)(F)F)cn2)cn1 [SRA737] + O=c1[nH]cc(F)c(=O)[nH]1 [5-Fluorouracil] (first compound max 10 µM, 7x7, partner max 20 µM) | 0.483 | 0.392 | 0.902 | 0.451 | 0.349 | 0.748 | 0.667 | 0.526 | 0.156 | 0.662 | 0.759 | 0.565 | 0.413 | 0.656 | 0.652 | 0.28 | 0.97 | 0.226 | 0.344 |  |
| C=CCn1c(=O)c2cnc(Nc3ccc(N4CCN(C)CC4)cc3)nc2n1-c1cccc(C(C)(C)O)n1 [AZD1775] + Nc1ccn([C@@H]2O[C@H](CO)[C@@H](O)C2(F)F)c(=O)n1 [Gemcitabine] (first compound max 1 µM, partner max 0.3 µM) | 0.581 | 0.574 | 0.972 | 0.568 | 0.697 | 0.958 | 0.693 | 0.63 | 0.617 | 0.862 | 0.785 | 0.787 | 0.863 | 0.882 | 0.808 | 0.685 | 1 | 0.677 | 0.733 | 0.583 |
| C[C@@H](Nc1cc(F)cc(F)c1)c1cc(C(=O)N(C)C)cc2c(=O)cc(N3CCOCC3)oc12 [AZD8186] + CC(=O)c1c(C)c2cnc(Nc3ccc(N4CCNCC4)cn3)nc2n(C2CCCC2)c1=O [Palbociclib] (first compound max 10 µM, 7x7, partner max 10 µM) | 0.387 | 0.564 | 0.594 | 0.509 | 0.247 | 0.999 | 0.378 | 0.447 | 0.411 | 0.651 | 0.53 | 0.755 | 0.586 | 0.514 | 0.736 | 0.434 | 0.536 | 0.353 | 0.571 | 0.394 |
| Cc1c2c(nn1C)CSCc1cc(n(C)n1)CSc1cc(c3ccccc3c1)OCCCc1c(C(=O)O)n(C)c3c-2c(Cl)ccc13 [AZD5991] + CC(=O)O[C@H]1C(=O)[C@@]2(C)[C@H]([C@H](OC(=O)c3ccccc3)[C@]3(O)C[C@H](OC(=O)[C@H](O)[C@@H](NC(=O)c4ccccc4)c4ccccc4)C(C)=C1C3(C)C)[C@]1(OC(C)=O)CO[C@@H]1C[C@@H]2O [Paclitaxel] (first compound max 1 µM, 7x7, partner max 3 µM) | 0.878 | 0.732 | 0.995 | 0.846 | 0.681 | 1 | 0.752 | 0.443 | 0.472 | 0.744 | 0.943 | 0.584 | 0.95 | 1 | 0.655 | 0.469 | 1 | 0.394 | 0.79 | 0.54 |
| C[C@@H](Oc1cc(-c2cnn(C3CCNCC3)c2)cnc1N)c1c(Cl)ccc(F)c1Cl [Crizotinib] + CC1=C(C(=CC=C1)Cl)NC(=O)C2=CN=C(S2)NC3=CC(=NC(=N3)C)N4CCN(CC4)CCO [Dasatinib] (first compound max 10 µM, 7x7, partner max 2 µM) | 0.389 | 0.843 | 0.838 | 0.81 | 0.285 | 1 | 0.863 | 0.594 | 0.714 | 0.837 | 0.918 | 0.888 | 1 | 0.771 | 0.505 | 0.772 | 0.976 | 0.721 | 0.776 | 0.391 |
| CC1(C)CCC(CN2CCN(c3ccc(C(=O)NS(=O)(=O)c4ccc(NCC5CCOCC5)c([N+](=O)[O-])c4)c(Oc4cnc5[nH]ccc5c4)c3)CC2)=C(c2ccc(Cl)cc2)C1 [Venetoclax] + CS(=O)(=O)CCNCc1ccc(-c2ccc3ncnc(Nc4ccc(OCc5cccc(F)c5)c(Cl)c4)c3c2)o1 [Lapatinib] (first compound max 1 µM, 7x7, partner max 10 µM) | 0.288 | 0.356 | 0.399 | 0.187 | 0.261 | 0.975 | 0.673 | 0.268 | 0.373 | 0.484 | 0.341 | 0.52 | 0.213 | 0.325 | 0.486 | 0.362 | 0.948 | 0.167 | 0.635 | 0.345 |
| CN(CCO)CC[C@H](CSc1ccccc1)Nc1ccc(S(=O)(=O)NC(=O)c2ccc(N3CCC([C@@H](O)c4ccccc4-c4ccc(Cl)cc4)CC3)cc2)cc1S(=O)(=O)C(F)(F)F [AZD4320] + C[C@@H](Nc1cc(F)cc(F)c1)c1cc(C(=O)N(C)C)cc2c(=O)cc(N3CCOCC3)oc12 [AZD8186] (first compound max 1 µM, 7x7, partner max 3 µM) | 0.354 | 0.669 | 0.433 | 0.619 | 0.552 | 1 | 0.369 | 0.337 | 0.649 | 0.887 | 0.779 | 0.593 | 0.503 | 0.32 | 0.6 | 0.297 | 1 | 0.321 | 0.789 | 0.407 |
| CN(CCO)CC[C@H](CSc1ccccc1)Nc1ccc(S(=O)(=O)NC(=O)c2ccc(N3CCC([C@@H](O)c4ccccc4-c4ccc(Cl)cc4)CC3)cc2)cc1S(=O)(=O)C(F)(F)F [AZD4320] + CC(=O)O[C@H]1C(=O)[C@@]2(C)[C@H]([C@H](OC(=O)c3ccccc3)[C@]3(O)C[C@H](OC(=O)[C@H](O)[C@@H](NC(=O)c4ccccc4)c4ccccc4)C(C)=C1C3(C)C)[C@]1(OC(C)=O)CO[C@@H]1C[C@@H]2O [Paclitaxel] (first compound max 1 µM, 7x7, partner max 3 µM) | 0.757 | 0.846 | 1 | 0.94 | 0.874 | 1 | 0.965 | 0.75 | 0.927 | 0.852 | 0.837 | 0.773 | 1 | 1 | 0.746 | 0.823 | 1 | 0.875 | 0.881 | 0.978 |
| CN(CCO)CC[C@H](CSc1ccccc1)Nc1ccc(S(=O)(=O)NC(=O)c2ccc(N3CCC([C@@H](O)c4ccccc4-c4ccc(Cl)cc4)CC3)cc2)cc1S(=O)(=O)C(F)(F)F [AZD4320] + CS(=O)(=O)CCNCc1ccc(-c2ccc3ncnc(Nc4ccc(OCc5cccc(F)c5)c(Cl)c4)c3c2)o1 [Lapatinib] (first compound max 1 µM, 7x7, partner max 10 µM) | 0.229 | 0.677 | 0.729 | 0.355 | 0.6 | 0.997 | 0.983 | 0.512 | 0.484 | 0.866 | 0.71 | 0.951 | 0.452 | 0.477 | 0.562 | 0.826 | 0.993 | 0.369 | 0.963 | 0.869 |
| O=C(c1cc(Cc2n[nH]c(=O)c3ccccc23)ccc1F)N1CCN(C(=O)C2CC2)CC1 [Olaparib] + CC1(C)CCC(CN2CCN(c3ccc(C(=O)NS(=O)(=O)c4ccc(NCC5CCOCC5)c([N+](=O)[O-])c4)c(Oc4cnc5[nH]ccc5c4)c3)CC2)=C(c2ccc(Cl)cc2)C1 [Venetoclax] (first compound max 10 µM, 7x7, partner max 1 µM) | 0.29 | 0.232 | 0.188 | 0.156 | 0.225 | 0.719 | 0.117 | 0.203 | 0.201 | 0.479 | 0.284 | 0.177 | 0.186 | 0.191 | 0.206 | 0.118 | 0.465 | 0.173 | 0.314 | 0.139 |
| C[C@@H]1COCCN1c1cc(C2([S@](C)(=N)=O)CC2)nc(-c2ccnc3[nH]ccc23)n1 [AZD6738] + Nc1ccn([C@@H]2O[C@H](CO)[C@@H](O)C2(F)F)c(=O)n1 [Gemcitabine] (first compound max 10 µM, 7x7, partner max 0.3 µM) | 0.66 | 0.721 | 0.993 | 0.778 | 0.684 | 0.945 | 0.926 | 0.714 | 0.7 | 0.852 | 0.874 | 0.819 | 0.937 | 0.954 | 0.846 | 0.695 | 1 | 0.795 | 0.767 | 0.625 |
| N#Cc1cnc(Nc2cc(NC[C@H]3CNCCO3)c(C(F)(F)F)cn2)cn1 [SRA737] + Nc1ccn([C@@H]2O[C@H](CO)[C@@H](O)C2(F)F)c(=O)n1 [Gemcitabine] (first compound max 10 µM, 7x7, partner max 0.3 µM) | 0.634 | 0.679 | 0.979 | 0.689 | 0.657 |  | 0.826 | 0.683 | 0.647 | 0.806 | 0.804 | 0.792 | 0.916 | 0.923 | 0.789 | 0.761 | 1 | 0.736 | 0.752 | 0.543 |
